Measured values published in patent US20130035344A1, “PHARMACEUTICAL COMPOSITION FOR ORAL ADMINISTRATION” (KOWA Co., Ltd., priority 2009, published 2013).

Legend:
Format in all cases: physicochemical
[1] = Dissolution test, JP second method (paddle method), second fluid for dissolution test
Protocol: The dissolubility of the samples 1 to 6 was examined according to the second method (paddle method) of the dissolution test method according to the general test methods of the Japanese Pharmacopoeia.
103.65 mg of each of the samples 1 to 6 (53.65 mg for sample 2 only) was introduced into 900 mL of the second fluid for dissolution test according to the Japanese Pharmacopoeia, and the test was carried out under the conditions of a temperature of 37±0.5° C. and a speed of paddle rotation of 50 rpm. Thus, the concentrations of the compound a after 5, 10, 15, 30, 45 and 60 minutes were measured. The sample solution collected at each time point was filtered through a membrane filter made of PTFE (DISMIC-25HP manufactured by Toyo Roshi Kaisha, Ltd.) having a pore size of 0.45 μm, and was analyzed by a high performance liquid chromatographic method using a reversed phase column (manufactured by Nomura Chemical Co., Ltd.; Develosil ODS-HG-5). Thus, the dissolution rates were calculated.
The dissolubility of the samples 7 to 15 was examined by carrying out the test in the same manner as that described in Test Example 1, except that 153.65 mg of sample 7, 98.65 mg of sample 8, 93.65 mg of sample 9, 88.65 mg of sample 10, 78.65 mg of sample 11, 68.65 mg of sample 12, 63.65 mg of sample 13, 58.65 mg of sample 14, and 55.65 mg of sample 15 were respectively introduced into 900 mL of the second fluid for dissolution test according to the Japanese Pharmacopoeia.
The dissolubility of the tablets of Examples 8 to 10 and Comparative Examples 9 and 10 was examined by carrying out the test by the same method as that described in Test Example 1, except that one tablet each of the Examples and Comparative Examples were introduced into 900 mL of the second fluid for dissolution test according to the Japanese Pharmacopoeia.
The dissolubility of the tablets of Example 11 and Comparative Example 11 was examined by carrying out the test in the same manner as that described in Test Example 1, except that each of tablets of Example 11 and Comparative Example 11 was introduced into 900 mL of the second fluid for dissolution test according to the Japanese Pharmacopoeia.

[2] = Measurement of pH value of sample or tablet in purified water
Protocol: 103.65 mg of each of the samples 1 to 6 (53.65 mg for sample 2 only) was introduced into a beaker, and 50 mL of purified water was added thereto. While the mixture was stirred with a magnetic stirrer, the pH of the solution was measured with a glass electrode type hydrogen ion concentration meter (manufactured by Toa Electronics, Inc.; HM-50V). 50 mL of purified water was further added thereto, and then the measurement of pH was carried out in the same manner.
The pH values of the samples 7 to 15 were measured in the same manner as that used in Test Example 2. Meanwhile 153.65 mg of sample 7, 98.65 mg of sample 8, 93.65 mg of sample 9, 88.65 mg of sample 10, 78.65 mg of sample 11, 68.65 mg of sample 12, 63.65 mg of sample 13, 58.65 mg of sample 14, and 55.65 mg of sample 15 were used.
The pH values of the tablets of Examples 8 to 10 and Comparative Examples 9 and 10 were measured by the same method as that used in Test Example 2. Meanwhile, one tablet was used for each measurement.
The pH values of the tablets of Example 11 and Comparative Example 11 were measured in the same manner as that used in Test Example 2. Meanwhile, one tablet was used for each measurement.

[3] = Solubility of compound a in water
Source text: However, compound a has low solubility in weakly acidic environments to alkaline environments (for example, the solubility in water is 0.05% (W/V)). Therefore, in the case of patients of achlorhydria, which is considered to develop more frequently in elderly people, there has been a concern that the dissolubility of the compound a from the pharmaceutical composition in the stomach may be insufficient, and there may be variations in the efficacy of the drug.

Structure (SMILES) | dissolution rate of compound a, Time (min) 0 ([1]; 0 min, 900 mL JP second fluid, 37±0.5° C., paddle 50 rpm) [%] | dissolution rate of compound a, Time (min) 5 ([1]; 5 min, 900 mL JP second fluid, 37±0.5° C., paddle 50 rpm) [%] | dissolution rate of compound a, Time (min) 10 ([1]; 10 min, 900 mL JP second fluid, 37±0.5° C., paddle 50 rpm) [%] | dissolution rate of compound a, Time (min) 15 ([1]; 15 min, 900 mL JP second fluid, 37±0.5° C., paddle 50 rpm) [%] | dissolution rate of compound a, Time (min) 30 ([1]; 30 min, 900 mL JP second fluid, 37±0.5° C., paddle 50 rpm) [%] | dissolution rate of compound a, Time (min) 45 ([1]; 45 min, 900 mL JP second fluid, 37±0.5° C., paddle 50 rpm) [%] | dissolution rate of compound a, Time (min) 60 ([1]; 60 min, 900 mL JP second fluid, 37±0.5° C., paddle 50 rpm) [%] | pH (100 mL) ([2]; after a further 50 mL purified water (100 mL)) | pH (50 mL) ([2]; sample or one tablet in 50 mL purified water, stirred) | dissolubility of compound a (in words) ([1]; JP second fluid, paddle method) | solubility in water [3]
CSc1cc(C)nc(SC)c1NC(=O)CN1CCN(CCSc2nc3ccccc3[nH]2)CC1 [Comparative Example 1, 2-[4-[2-(Benzimidazol-2-ylthio)ethyl]piperazin-1-yl]-N-[2,4-bis(methylthio)-6-methyl-3-pyridyl]acetamide] | 0 | 0 | 5.7 | 3.1 | 5.2 | 7.1 | 10.2 | 5.07 | 5.02 | – | –
CSc1cc(C)nc(SC)c1NC(=O)CN1CCN(CCSc2nc3ccccc3[nH]2)CC1 [compound a, 2-[4-[2-(Benzimidazol-2-ylthio)ethyl]piperazin-1-yl]-N-[2,4-bis(methylthio)-6-methyl-3-pyridyl]acetamide] | – | – | – | – | – | – | – | – | – | hardly dissolved | 0.05 % (W/V)
